{
  "source": "patent US20050075284A1",
  "about": "“Pharmaceutical compositions comprising vip-related peptides for the treatment of sexual disorders” (priority 2001, published 2005)",
  "key": {"[1]": {"system": "vaginal muscle", "assay": "Rabbit vaginal contraction in organ bath (force transducer)", "assay_type": "cell-based, New Zealand female rabbit", "procedure": "The vagina of 12-week-old New Zealand female rabbit was removed, exiced to 1 cm length and immersed in 10 ml of capacity organ bath connected to an external reservoir of Krebs-Henseleit in constant temperature of 37° C. The solution was oxygenated (95%O2/[…]). The effect of VIP and SNV on vaginal contraction was measured by attaching the vaginal muscle to a force transducer."}, "[2]": {"system": "cGMP formation", "conditions": "versus VIP; cited from earlier work"}, "[3]": {"conditions": "cited from earlier work"}, "[4]": {"system": "uterine smooth muscle activity and vaginal blood flow", "conditions": "systemic administration to females; cited from earlier work"}, "[5]": {"system": "penile erection", "conditions": "in the male; cited from earlier work"}},
  "note": "“Also recorded” adds a separate entry of the source. Where no end group is shown, it is not given here.",
  "data": [
    {"substance": "Stearoyl-norleucine^17-VIP [SNV]", "values": [
      {"measurement": "effect on contraction force (inotropic effect)", "setting": "[1]; 0.3 μM peptide, 0.5 μM phenylephrine, FIG. 2", "result": "reduced the contraction force"},
      {"measurement": "effect on rate of vaginal contraction", "setting": "[1]; 0.3 μM peptide, contraction stimulated by 0.5 μM phenylephrine, FIG. 2", "result": "attenuated the rate of vaginal contraction"},
      {"measurement": "effect on vaginal contraction at high concentration", "setting": "[1]; 1.5 μM peptide (b76 prints 1.5 M), contraction stimulated by 0.5 μM phenylephrine, FIG. 3", "result": "blocked vaginal contraction; also recorded: neutralized vaginal contraction"},
      {"measurement": "potency in enhancing cGMP formation relative to VIP", "setting": "[2]", "result": 1000, "unit": "fold"},
      {"measurement": "bioavailability", "setting": "[3]", "result": "increased stability and bioavailability"}
    ]},
    {"substance": "vasoactive intestinal peptide (HSDAVFTDNYTRLRKQMAVKKYLNSILN; ends and bridges not checked; UniProt P01282 125-152, looked up) [VIP]", "values": [
      {"measurement": "effect on vaginal contraction", "setting": "[1]; 0.3 μM peptide, preliminary results, FIG. 1", "result": "neutralized vaginal contraction"},
      {"measurement": "uterine smooth muscle activity", "setting": "[4]", "result": "decrease uterine smooth muscle activity"},
      {"measurement": "vaginal blood flow", "setting": "[4]", "result": "increase vaginal blood flow"},
      {"measurement": "penile erection", "setting": "[5]", "result": "induces penile erection"}
    ]}
  ]
}
